Laboratory results: paper PMC3914206

Assays:
Assay type in all cases: binding
Details in all cases: Compound Concentration 10 µM
panel of 442 kinases [1] = molecular target: T1, panel of 442 kinases (Homo sapiens, UniProt Q96RR4)
T1 construct: purchased KINOMEscan
Description: (§1) We assessed the selectivity of members of this scaffold using the KINOMEscan methodology across a near comprehensive panel of 442 kinases [[18,27]].

panel of 442 kinases [2] = molecular target: T2, panel of 442 kinases (Homo sapiens, UniProt Q9UBF8)
T2 construct: purchased KINOMEscan
Description: as §1

panel of 442 kinases [3] = molecular target: T3, panel of 442 kinases (Homo sapiens, UniProt Q08881)
T3 construct: purchased KINOMEscan
T3 sequence (Q08881 1-620): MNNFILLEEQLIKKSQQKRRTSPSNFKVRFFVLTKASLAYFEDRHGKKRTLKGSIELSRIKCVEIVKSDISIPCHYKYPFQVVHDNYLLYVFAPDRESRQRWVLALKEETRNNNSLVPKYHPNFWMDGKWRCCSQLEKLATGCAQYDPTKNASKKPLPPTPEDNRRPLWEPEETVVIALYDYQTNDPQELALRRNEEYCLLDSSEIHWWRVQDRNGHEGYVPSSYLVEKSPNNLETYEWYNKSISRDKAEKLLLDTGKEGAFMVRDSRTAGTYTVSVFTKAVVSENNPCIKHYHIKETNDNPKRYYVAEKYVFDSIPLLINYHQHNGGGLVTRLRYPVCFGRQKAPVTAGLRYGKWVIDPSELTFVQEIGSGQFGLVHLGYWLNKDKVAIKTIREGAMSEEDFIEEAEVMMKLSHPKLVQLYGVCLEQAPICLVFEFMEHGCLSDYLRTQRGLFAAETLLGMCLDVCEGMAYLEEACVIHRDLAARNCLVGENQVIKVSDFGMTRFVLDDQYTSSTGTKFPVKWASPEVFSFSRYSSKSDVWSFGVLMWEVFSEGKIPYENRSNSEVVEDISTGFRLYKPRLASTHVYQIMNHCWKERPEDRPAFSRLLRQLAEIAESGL
Description: as §1

T1 sequence (Q96RR4 whole entry): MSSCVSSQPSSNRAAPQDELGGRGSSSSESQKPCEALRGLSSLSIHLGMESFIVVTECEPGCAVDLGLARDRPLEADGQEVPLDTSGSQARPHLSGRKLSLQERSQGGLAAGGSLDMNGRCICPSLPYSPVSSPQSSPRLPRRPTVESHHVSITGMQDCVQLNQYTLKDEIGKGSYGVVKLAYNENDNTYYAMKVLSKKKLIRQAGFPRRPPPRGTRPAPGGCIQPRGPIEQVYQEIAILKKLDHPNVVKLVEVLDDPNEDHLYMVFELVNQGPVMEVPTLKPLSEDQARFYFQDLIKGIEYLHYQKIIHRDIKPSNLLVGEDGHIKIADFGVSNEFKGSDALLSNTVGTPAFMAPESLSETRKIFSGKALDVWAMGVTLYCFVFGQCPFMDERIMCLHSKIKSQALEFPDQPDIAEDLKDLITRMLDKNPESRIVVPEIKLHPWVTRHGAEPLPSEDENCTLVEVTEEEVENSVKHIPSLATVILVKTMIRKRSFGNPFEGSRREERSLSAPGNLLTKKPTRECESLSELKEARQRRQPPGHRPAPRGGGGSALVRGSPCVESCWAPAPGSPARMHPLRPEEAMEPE
T2 sequence (Q9UBF8 whole entry): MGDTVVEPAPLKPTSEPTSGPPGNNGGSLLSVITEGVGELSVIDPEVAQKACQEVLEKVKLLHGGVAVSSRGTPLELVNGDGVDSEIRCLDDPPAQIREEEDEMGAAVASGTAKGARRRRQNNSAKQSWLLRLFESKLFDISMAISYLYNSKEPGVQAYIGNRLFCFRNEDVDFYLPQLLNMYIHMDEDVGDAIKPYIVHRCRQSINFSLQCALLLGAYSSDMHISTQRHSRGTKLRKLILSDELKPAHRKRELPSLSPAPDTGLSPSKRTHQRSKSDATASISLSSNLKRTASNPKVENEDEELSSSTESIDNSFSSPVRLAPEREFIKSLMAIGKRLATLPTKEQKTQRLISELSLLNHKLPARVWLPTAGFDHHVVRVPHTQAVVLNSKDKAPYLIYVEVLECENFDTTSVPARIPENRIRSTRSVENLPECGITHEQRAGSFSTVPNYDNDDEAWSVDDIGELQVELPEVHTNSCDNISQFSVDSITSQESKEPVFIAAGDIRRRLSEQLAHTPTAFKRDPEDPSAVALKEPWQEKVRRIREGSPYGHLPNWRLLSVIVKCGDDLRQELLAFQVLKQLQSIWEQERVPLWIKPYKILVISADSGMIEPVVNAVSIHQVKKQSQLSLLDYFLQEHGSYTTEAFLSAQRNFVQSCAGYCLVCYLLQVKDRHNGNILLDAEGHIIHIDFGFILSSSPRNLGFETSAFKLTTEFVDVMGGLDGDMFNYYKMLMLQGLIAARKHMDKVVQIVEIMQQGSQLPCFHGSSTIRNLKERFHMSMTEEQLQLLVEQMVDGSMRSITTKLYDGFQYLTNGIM

Structure (SMILES)	KINOMEscan: CAMKK2 (panel of 442 kinases [1])	KINOMEscan: PIK4CB (panel of 442 kinases [2])	KINOMEscan: ITK (panel of 442 kinases [3])
COc1cc(C(=O)N2CCC(N3CCN(C)CC3)CC2)ccc1Nc1ncc2c(n1)N(C1CCCC1)c1ccccc1C(=O)N2C [Compound 25, 11-cyclopentyl-2-((2-methoxy-4-(4-(4-methylpiperazin-1-yl)piperidine-1-carbonyl)phenyl)amino)-5-methyl-5H-benzo[e]pyrimido[5,4-b][1,4]diazepin-6(11H)-one]	78	100	100
COc1cc(C(=O)N2CCC(N3CCN(C)CC3)CC2)ccc1Nc1ncc2c(n1)N1CCc3cccc(c31)C(=O)N2C [Compound 24]	52	–	–
COc1cc(C(=O)N2CCC(N3CCN(C)CC3)CC2)ccc1Nc1ncc2c(n1)N(C)c1ccccc1C(=O)N2C [15 (LRRK2-IN-1)]	31	95	82
CCOc1cc(C(=O)N2CCC(N3CCN(C)CC3)CC2)ccc1Nc1ncc2c(n1)N(C1CCCC1)c1ccccc1C(=O)N2C [Compound 26]	100	100	100
